{
  "source": "paper PMC2760071",
  "about": "(Bioorganic & medicinal chemistry letters, 2009)",
  "key": {"ovine COX-1 [1]": {"target": "T1, ovine COX-1 (Ovis aries, UniProt P05979)", "T1 sequence (P05979 25-600)": "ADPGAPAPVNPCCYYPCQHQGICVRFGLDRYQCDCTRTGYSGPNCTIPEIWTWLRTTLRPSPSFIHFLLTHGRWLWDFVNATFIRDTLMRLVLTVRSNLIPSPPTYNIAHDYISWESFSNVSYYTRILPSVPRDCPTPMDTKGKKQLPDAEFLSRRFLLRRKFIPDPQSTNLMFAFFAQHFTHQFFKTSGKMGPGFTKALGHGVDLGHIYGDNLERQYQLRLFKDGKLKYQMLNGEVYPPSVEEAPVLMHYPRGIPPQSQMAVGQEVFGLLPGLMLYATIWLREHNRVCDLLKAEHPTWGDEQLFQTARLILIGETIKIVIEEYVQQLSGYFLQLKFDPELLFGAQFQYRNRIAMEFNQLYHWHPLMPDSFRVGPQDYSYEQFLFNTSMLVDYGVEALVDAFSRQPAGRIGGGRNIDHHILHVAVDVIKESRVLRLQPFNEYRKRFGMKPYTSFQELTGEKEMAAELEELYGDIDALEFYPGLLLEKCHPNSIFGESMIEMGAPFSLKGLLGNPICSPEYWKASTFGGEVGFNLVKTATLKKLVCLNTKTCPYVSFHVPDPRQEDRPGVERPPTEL", "details": "COX-1, 50 μM arachidonic acid (saturating)"}, "murine COX-2 [2]": {"target": "T2, murine COX-2 (Mus musculus, UniProt Q05769)", "T2 sequence (Q05769 18-604)": "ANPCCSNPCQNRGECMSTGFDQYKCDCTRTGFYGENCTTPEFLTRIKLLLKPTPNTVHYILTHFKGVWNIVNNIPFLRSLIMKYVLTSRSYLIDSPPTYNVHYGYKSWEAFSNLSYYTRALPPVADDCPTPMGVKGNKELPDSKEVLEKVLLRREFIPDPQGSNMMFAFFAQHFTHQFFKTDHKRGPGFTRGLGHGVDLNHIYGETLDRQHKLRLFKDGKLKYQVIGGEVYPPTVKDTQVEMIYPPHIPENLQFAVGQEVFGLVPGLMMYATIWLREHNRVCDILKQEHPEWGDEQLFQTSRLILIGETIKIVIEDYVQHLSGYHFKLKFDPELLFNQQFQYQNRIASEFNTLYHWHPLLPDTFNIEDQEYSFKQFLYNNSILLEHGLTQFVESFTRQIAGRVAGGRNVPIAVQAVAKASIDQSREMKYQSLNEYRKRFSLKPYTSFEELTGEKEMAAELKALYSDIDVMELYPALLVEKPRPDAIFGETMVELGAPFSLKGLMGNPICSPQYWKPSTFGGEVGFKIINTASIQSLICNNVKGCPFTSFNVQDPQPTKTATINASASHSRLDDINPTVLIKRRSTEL", "experiment": "Competitive COX inhibition assay, reduced arachidonate", "format": "biochemical", "details": "COX-2, 5 μM arachidonate, at the concentration ranges tested"}, "murine COX-2 [3]": {"target": "T2, murine COX-2", "details": "COX-2, 50 μM arachidonic acid (saturating)"}, "[4]": {"experiment": "Photoisomerization / light stability of E and Z isomers"}, "oCOX-1": {"test_system": "oCOX-1", "details": "wild-type oCOX-1; cited from earlier work"}, "ovine COX-1 [5]": {"target": "T1, ovine COX-1", "details": "COX-1, 5 μM vs 50 μM arachidonate, data not shown"}},
  "data": [
    {"smiles": "CSc1ccc(/C=C2\\C=C(CC(=O)O)c3cc(F)ccc32)cc1", "values": [
      {"measurement": "time-dependent inhibition (in words)", "setting": "ovine COX-1 [1]", "value": "no time-dependent inhibition"},
      {"measurement": "competitive inhibition (in words)", "setting": "murine COX-2 [2]", "value": "no inhibition"},
      {"measurement": "time-dependent inhibition (in words)", "setting": "murine COX-2 [3]", "value": "no time-dependent inhibition"},
      {"measurement": "percentage conversion to the Z-isomer", "setting": "[4]; 370 nm, 24 hours, high-pressure mercury lamp", "value": "1-2%"}
    ]},
    {"smiles": "CSc1ccc(/C=C2/C=C(CC(=O)O)c3cc(F)ccc32)cc1", "note": "[(Z)-2′-des-methyl sulindac sulfide]", "values": [
      {"measurement": "behaviour on exposure to natural light", "setting": "[4]; natural light, during HPLC purification", "value": "photoisomerized to the E-isomer"}
    ]},
    {"smiles": "COc1ccc2c(c1)c(CC(=O)O)c(C)n2C(=O)c1ccc(Cl)cc1", "note": "[Indomethacin, indomethacin]", "values": [
      {"measurement": "IC50", "setting": "oCOX-1", "value": "[…]"}
    ]},
    {"smiles": "CSc1ccc(/C=C2/C(C)=C(CC(=O)O)c3cc(F)ccc32)cc1", "note": "[sulindac sulfide, reference compound]", "values": [
      {"measurement": "maximal extent (plateau) of inhibition", "setting": "ovine COX-1 [1]", "value": "around 75%"},
      {"measurement": "effect of reduced substrate concentration on ability to inhibit", "setting": "ovine COX-1 [5]", "value": "not significantly affected"},
      {"measurement": "photoisomerization (interconversion)", "setting": "[4]; natural light and ultraviolet conditions", "value": "no interconversion was observed"}
    ]}
  ]
}
